Test results taken from PMC6751662, “Pharmacological and functional similarities of the human neuropeptide Y system in C. elegans challenges phylogenetic views on the FLP/NPR system” (Cell Communication and Signaling : CCS, 2019).

How the values were obtained:
Format in all cases: cell-based, C. elegans
NPR-3 = biological target: T1, NPR-3 (Caenorhabditis elegans, UniProt P90745); experiment: cAMP reporter gene assay, Gs (no forskolin), NPR-3; conditions: no forskolin, 4 h, transiently transfected HEK293, CRE-luciferase reporter, mean of >=3 independent experiments
T1 construct: expressed in transfected cells; host or cells: HEK293
T1 sequence (P90745 1-376): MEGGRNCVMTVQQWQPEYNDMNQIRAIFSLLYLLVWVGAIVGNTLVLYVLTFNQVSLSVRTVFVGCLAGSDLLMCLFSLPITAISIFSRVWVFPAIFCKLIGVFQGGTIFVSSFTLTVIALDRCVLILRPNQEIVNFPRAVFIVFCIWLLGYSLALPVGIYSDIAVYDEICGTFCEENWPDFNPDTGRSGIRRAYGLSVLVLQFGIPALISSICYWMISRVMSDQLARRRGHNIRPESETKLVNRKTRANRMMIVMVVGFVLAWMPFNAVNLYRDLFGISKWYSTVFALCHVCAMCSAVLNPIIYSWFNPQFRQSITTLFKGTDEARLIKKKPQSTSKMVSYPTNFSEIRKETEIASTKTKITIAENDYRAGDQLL
Procedure: Activation of Gs and Gi/o was assessed with a cAMP reporter gene assay. HEK293 cells grown to 70–80% confluency in 6-well plates were transiently co-transfected with vectors encoding the receptor and the cAMP reporter gene plasmid pGL4.29 [luc2P/CRE/Hygro] (Promega; 4 μg total, 1:1 ratio) using Metafectene Pro (3 μl/μg DNA; Biontex) following the manufacturer’s instructions. 16 h post transfection, the cells were seeded into white 384-well plates at a density of 20,000 cells/well. On the next day, the medium was removed and the cells were stimulated with 20 μl of peptide solution (or forskolin as positive control) in serum-free DMEM for 4 h. For measuring Gi/o activity, the peptide solutions additionally contained 1 μM forskolin to elevate cellular cAMP levels. After incubation, the luciferase substrate OneGlo in lysis buffer (Promega) was added and the luminescence was measured in a microplate reader Tecan Spark (Tecan). Data were analyzed with GraphPad Prism 5.03 and are shown as fold of basal or fold of forskolin in case of Gαi/o activity.
For in vitro activation, data is presented as mean ± SEM of at least three independent experiments conducted in technical triplicate. […] For the C. elegans NPRs, we considered the strongest response elicited by any of the peptides downstream of a particular receptor as the receptor’s maximal signal. This may or may not be the biological maximum that can be reached by the ‘true’ endogenous agonist. For the human receptors, the response to the established endogenous agonist reflected the maximal signal.

NPR-11 = biological target: T2, NPR-11 (Caenorhabditis elegans, UniProt Q18179); experiment: IP accumulation assay, endogenous Gαq + mock, NPR-11; conditions: 1 h, HBSS + 20 mM LiCl, HEK293 receptor + empty vector, HTRF IP-One, mean of >=3 independent experiments
T2 construct: expressed in transfected cells; host or cells: HEK293, transient
T2 sequence (Q18179 1-402): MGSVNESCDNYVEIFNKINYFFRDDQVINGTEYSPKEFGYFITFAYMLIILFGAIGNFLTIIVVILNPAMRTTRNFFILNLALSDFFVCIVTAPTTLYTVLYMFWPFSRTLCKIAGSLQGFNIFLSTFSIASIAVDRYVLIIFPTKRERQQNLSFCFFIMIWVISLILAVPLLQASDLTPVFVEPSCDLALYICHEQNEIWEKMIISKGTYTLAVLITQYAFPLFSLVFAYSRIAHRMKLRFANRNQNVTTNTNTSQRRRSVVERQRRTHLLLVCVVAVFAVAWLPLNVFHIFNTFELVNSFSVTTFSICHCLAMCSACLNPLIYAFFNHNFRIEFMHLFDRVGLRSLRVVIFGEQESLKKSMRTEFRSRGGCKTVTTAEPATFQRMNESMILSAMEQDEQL
Procedure: (§1) For measuring IP accumulation, HEK293 cells grown to 70–80% confluency in 6-well plates were transiently co-transfected using Metafectene Pro (2.5 μl/μg DNA; Biontex) with plasmids containing receptor and/or mock (empty pcDNA3.1) (for endogenous Gq-coupling) using 4 μg total DNA in a ratio of 3:1 following the manufacturer’s instructions. For testing Gα16- and GαΔ6qi4myr-coupling, plasmids encoding the corresponding Gα protein were co-transfected instead of mock. Gα16 is naturally promiscuous and stimulates the phospholipase C (PLC) pathway leading to IP production, while the exchange of the C-terminal four amino acids of Gαq for the corresponding residues of Gαi1 in the chimeric GαΔ6qi4myr confers the ability to couple to Gi/o protein-preferring receptors but still stimulate PLC, thus specifically redirecting downstream cellular signaling. 16 h post transfection, the cells were seeded into white 384-well plates at a density of 20,000 cells/well. Media was removed 24 h later and the cells were incubated with the indicated concentration of peptides for 1 h in HBSS + 20 mM LiCl. IP accumulation was measured with the HTRF-based IP-One Gq kit (Cisbio) on a microplate reader (Tecan Spark).
(§2) For in vitro activation, data is presented as mean ± SEM of at least three independent experiments conducted in technical triplicate. […]

NPR-1 = biological target: T3, NPR-1 (Caenorhabditis elegans, UniProt Q18534); experiment: IP accumulation assay, endogenous Gαq + mock, NPR-1; set-up: host or cells: HEK293; conditions: 1 h, HBSS + 20 mM LiCl, HEK293 receptor + empty vector, HTRF IP-One, mean of >=3 independent experiments
T3 sequence (Q18534 1-457): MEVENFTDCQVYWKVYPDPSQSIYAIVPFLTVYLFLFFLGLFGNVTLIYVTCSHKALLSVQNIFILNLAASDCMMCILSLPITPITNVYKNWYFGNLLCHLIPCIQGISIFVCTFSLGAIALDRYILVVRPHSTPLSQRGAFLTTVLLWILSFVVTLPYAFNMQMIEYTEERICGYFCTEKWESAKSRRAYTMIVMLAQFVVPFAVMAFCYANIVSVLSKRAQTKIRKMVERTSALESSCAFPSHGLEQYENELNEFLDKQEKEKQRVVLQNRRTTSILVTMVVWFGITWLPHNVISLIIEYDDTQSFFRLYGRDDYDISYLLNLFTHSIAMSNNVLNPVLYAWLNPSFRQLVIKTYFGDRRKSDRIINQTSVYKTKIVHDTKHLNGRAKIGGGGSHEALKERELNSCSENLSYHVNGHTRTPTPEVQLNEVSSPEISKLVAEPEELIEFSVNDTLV
Procedure: as §1, §2

[1] = 0.1 nM peptide (so in the source)

Substance: APKPKFIRF-NH2 [FLP-5-1, C. elegans FMRFamide-like peptide, C-terminally amidated, synthesized by SPPS]
- cAMP assay Gs, NPR-3 (NPR-3; 0.1 µM peptide): 0.86 x-fold of basal
- cAMP assay Gs, NPR-3 (NPR-3; 10 µM peptide): 0.85 x-fold of basal
- IP assay endog. Gαq + mock, NPR-11 (NPR-11; [1]): 1.05 x-fold of basal
- IP assay endog. Gαq + mock, NPR-11 (NPR-11; 10 µM peptide): 1.09 x-fold of basal
- IP assay endog. Gαq + mock, NPR-1 (NPR-1; [1]): 0.89 x-fold of basal
- IP assay endog. Gαq + mock, NPR-1 (NPR-1; 10 µM peptide): 0.94 x-fold of basal
